The numbers were not newly measured in patent US8916340B2, “Method for identifying and validating dominant T helper cell epitopes using an HLA-DM-assisted class II binding assay” (The John Hopkins University, priority 2006, dated 2014), which cites them from elsewhere.

This series concerns the target HLA-DR1 (Homo sapiens, UniProt P01903+P01911). Conditions: short-lived, DM-sensitive complex of peptide with HLA-DR1.

Chain of HLA-DR1 (P01903 26-216, other chains not shown): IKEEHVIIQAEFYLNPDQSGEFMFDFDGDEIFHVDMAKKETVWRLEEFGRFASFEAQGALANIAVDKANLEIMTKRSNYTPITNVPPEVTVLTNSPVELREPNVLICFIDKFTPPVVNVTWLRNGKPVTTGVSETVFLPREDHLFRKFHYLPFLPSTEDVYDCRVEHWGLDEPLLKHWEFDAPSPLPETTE

As for PKAVKQNTLKLAT [HAy308A], the “t1/2 of complex with HLA-DR1” value was 34 min.
